# Laboratory results reported in US20260207717A1, “METHODS FOR TREATING INFANTILE-ONSET POMPE DISEASE IN PEDIATRIC PATIENTS” (Amicus Therapeutics, Inc., priority 2022, published 2026).
# pKd: −log10 of the molar value. Entries after “also recorded” stand apart in the source; their conditions may differ. Where two headings read alike, the source gives them in different places. Marks after values point to notes of the source that are not given here.
# How the values were obtained:
# [1] = system: single fibers isolated from the white gastrocnemius of Gaa KO mice; test: Single fiber analysis (LAMP1/LC3 co-immunofluorescence); type: in vivo
# Text: FIG. 17 depicts co-immunofluorescent staining of LAMP1 (green) (see for example, “B”) and LC3 (red) (see, for example, “A”) in single fibers isolated from the white gastrocnemius of Gaa KO mice treated with a vehicle, alglucosidase alfa, or ATB200. “C” depicts clearance of autophagic debris and absence of enlarged lysosome. A minimum of 30 fibers were examined from each animal.
# As a result, a significant portion of muscle fibers analyzed (36-60%) from ATB200-treated mice appeared normal or near-normal.
# pediatric IOPD patient = settings: for LVEF / LVMI: 2 D
# [2] = system: pediatric patient with infantile Pompe disease; test: Example 16: pediatric IOPD patient switched from Myozyme to ATB200/AT2221; type: in vivo, human
# Text: A patient with severe infantile Pompe disease presented. The patient underwent a comprehensive physical examination, measurement of GAA enzyme activity, genetic testing of the GAA gene and muscle biopsy to establish the diagnosis.
# The patient received the high-dose enzyme replacement therapy with Myozyme after diagnosis. The patient responded very poorly to therapy. Due to rapidly progressing Pompe disease and inadequate response to therapy, the patient's survival was at risk. For the patient, the opportunity arose to receive the new ATB200/AT2221 ERT via a compassionate use/Expanded Access Program (EAP).
# The index patient has regular measurement of the urinary Glc4-levels since the change of the ERT to ATB200. The Glc4-levels were determined by an established method from the Duke University. The analysis of Glc4 is standardized as a butyl-4-aminobenzoate derivative using [^13C6] Glc4 as the internal standard (IS). The measurement is performed as ultra-performance liquid chromatography-tandem mass spectrometry (UPLC-MS/MS). The Glc4-values are then normalized to creatinine.
# The patient presented with IOPD at 6 months and was started on the standard dose of Myozyme (20 mg/kg/bi-weekly). Due to the inadequate response to therapy, the dose was doubled just one month after the start of therapy in form of a weekly administration of Myozyme. […] But the cardiological situation deteriorated progressively.
# Therefore, just three months after initiation of therapy, the dose was again doubled to 40 mg/kg/weekly, so the patient received a total of four times the standard dose. With the intensification of ERT and cardiac therapy, the patient's condition initially stabilized. Nevertheless, over the next few months, the patient's general condition steadily deteriorated, and the patient decompensated, especially respiratory.
# The patient was switched from Myozyme to ATB200/AT2221 after eight months of insufficient Myozyme therapy response. The patient was […] at the time of the therapy switch. The new therapy (via EAP) was initiated with the oral administration of 30 mg premedication AT2221 (Miglustat) one hour prior to enzyme administration. ATB200 was administered at a bi-weekly interval at a dosage of 20 mg/kg. In the further course of treatment, the dosage of premedication and ERT was repeatedly adjusted and optimized (see Table 22). Some actual dosages in Table 22 (e.g., 37 mg/kg and 34.5 mg/kg at 32 and 38 months, respectively) varied from the target dose (e.g., 30 mg/kg) to avoid waste of extra material left in vials.
# The Gross Motor Function Measure 66 (GMFM 66) is used to quantify a patients' motor skills. The GMFM 66 is a worldwide standardized test developed and validated for children with cerebral palsy to measure the development of gross motor function over time. During testing 66 items are examined and a score from 0 to 100 points is possible.
# CIMPR = CIMPR (Homo sapiens, UniProt P11717); test: CIMPR plate binding assay
# CIMPR, sequence (P11717 41-2491, species assumed): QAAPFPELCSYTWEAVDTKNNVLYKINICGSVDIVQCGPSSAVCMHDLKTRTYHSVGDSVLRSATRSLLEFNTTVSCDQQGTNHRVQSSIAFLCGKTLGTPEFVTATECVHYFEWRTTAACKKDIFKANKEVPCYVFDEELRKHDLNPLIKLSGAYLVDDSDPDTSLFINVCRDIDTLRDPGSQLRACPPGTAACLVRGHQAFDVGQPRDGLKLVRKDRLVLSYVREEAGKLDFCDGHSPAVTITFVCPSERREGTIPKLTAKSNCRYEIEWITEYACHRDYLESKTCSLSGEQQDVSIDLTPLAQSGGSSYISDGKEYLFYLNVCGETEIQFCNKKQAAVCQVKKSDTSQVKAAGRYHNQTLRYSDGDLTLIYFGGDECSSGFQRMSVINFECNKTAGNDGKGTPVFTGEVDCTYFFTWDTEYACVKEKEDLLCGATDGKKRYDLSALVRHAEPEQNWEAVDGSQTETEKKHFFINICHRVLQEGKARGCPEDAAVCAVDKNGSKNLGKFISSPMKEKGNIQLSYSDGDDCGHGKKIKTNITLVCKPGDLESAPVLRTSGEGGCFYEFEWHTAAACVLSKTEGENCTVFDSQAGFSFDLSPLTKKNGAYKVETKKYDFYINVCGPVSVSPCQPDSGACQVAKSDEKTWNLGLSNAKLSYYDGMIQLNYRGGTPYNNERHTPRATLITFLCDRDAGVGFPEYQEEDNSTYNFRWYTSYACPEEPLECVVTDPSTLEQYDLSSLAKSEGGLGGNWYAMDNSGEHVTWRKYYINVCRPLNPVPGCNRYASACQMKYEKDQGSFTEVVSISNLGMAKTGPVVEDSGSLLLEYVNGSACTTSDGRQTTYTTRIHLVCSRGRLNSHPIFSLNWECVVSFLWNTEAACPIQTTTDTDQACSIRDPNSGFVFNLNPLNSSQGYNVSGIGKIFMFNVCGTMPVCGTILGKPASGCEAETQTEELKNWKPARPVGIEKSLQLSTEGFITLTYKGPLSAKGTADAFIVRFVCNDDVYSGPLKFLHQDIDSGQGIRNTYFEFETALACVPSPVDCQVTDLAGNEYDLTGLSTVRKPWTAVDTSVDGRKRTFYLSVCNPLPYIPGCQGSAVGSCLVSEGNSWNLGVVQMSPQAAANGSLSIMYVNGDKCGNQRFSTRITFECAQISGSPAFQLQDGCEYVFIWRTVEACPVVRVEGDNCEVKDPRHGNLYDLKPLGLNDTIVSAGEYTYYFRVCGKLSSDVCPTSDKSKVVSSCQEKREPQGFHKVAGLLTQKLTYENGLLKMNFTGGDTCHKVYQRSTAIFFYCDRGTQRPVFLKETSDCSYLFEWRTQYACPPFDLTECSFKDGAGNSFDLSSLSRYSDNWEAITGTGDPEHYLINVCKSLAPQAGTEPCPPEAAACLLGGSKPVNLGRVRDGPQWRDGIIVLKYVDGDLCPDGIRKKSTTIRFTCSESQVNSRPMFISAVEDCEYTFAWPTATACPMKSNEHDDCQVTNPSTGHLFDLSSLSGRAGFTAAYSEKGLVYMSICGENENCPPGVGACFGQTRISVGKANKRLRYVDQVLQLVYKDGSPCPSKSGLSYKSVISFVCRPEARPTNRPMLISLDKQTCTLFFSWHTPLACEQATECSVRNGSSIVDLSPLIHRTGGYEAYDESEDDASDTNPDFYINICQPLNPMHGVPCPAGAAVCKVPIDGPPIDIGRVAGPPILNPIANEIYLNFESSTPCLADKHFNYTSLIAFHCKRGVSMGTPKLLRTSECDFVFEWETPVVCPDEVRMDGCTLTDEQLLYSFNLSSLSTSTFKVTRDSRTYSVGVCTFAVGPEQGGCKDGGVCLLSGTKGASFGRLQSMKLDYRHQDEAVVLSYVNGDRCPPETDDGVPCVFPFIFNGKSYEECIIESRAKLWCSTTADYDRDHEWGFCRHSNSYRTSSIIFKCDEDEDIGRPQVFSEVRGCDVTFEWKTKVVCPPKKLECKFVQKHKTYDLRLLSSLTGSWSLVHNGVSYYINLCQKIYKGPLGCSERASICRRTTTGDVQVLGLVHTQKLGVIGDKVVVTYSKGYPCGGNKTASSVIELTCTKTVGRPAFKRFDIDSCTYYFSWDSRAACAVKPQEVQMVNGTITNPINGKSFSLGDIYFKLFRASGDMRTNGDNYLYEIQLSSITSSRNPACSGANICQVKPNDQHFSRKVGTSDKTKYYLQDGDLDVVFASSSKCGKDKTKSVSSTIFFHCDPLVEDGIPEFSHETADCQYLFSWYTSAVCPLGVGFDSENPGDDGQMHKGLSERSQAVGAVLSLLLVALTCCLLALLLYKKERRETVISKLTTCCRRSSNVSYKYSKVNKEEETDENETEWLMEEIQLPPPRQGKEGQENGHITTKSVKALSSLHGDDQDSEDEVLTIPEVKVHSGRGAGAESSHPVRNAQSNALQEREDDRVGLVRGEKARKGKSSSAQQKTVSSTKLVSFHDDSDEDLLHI
# Procedure: In addition to having a greater percentage of rhGAA that can bind to the CIMPR, it is important to understand the quality of that interaction. LUMIZYME® and ATB200 receptor binding was determined using a CIMPR plate binding assay. Briefly, CIMPR-coated plates were used to capture GAA. Varying concentrations of rhGAA were applied to the immobilized receptor and unbound rhGAA was washed off. The amount of remaining rhGAA was determined by GAA activity. […] For LUMIZYME®, there is on average only 10% of molecules having a bis-phosphorylated N-glycan. In contrast, on average every rhGAA molecule in ATB200 has at least one bis-phosphorylated N-glycan.
# N-glycan analysis via MALDI-TOF mass spectrometry confirmed that on average each ATB200 molecule contains at least one natural bis-M6P N-glycan structure.
# Juvenile toxicology = type: in vivo
# Procedure: The cipaglucosidase alfa dose of 30 mg/kg being evaluated in this protocol was determined from population PK modeling and simulation analyses that included pooled data from 96 adults and 11 pediatric subjects dosed at 20, 25, and 30 mg/kg, including 3 pediatric IOPD patients from the Expanded Access Program (EAP) (ages 1 to 3 years) at the 30 mg/kg dose level. The 30 mg/kg dose level in combination with additional effect from miglustat provided exposures that are well within the safety margin and multiples of exposure established by the juvenile toxicology no-observed-adverse effect-level (NOAEL) of 150 mg/kg.
substance,measurement,setting,value
"ATB200: recombinant human acid α-glucosidase with a high content of N-glycans bearing mono-M6P and bis-M6P, produced from a GA-ATB200 cell line",Fibers with Autophagy Buildup,[1],40-64%*
same,Fibers with Normal or Near-normal Appearance,[1],36-60%
same,Lysosome Enlargement,[1],dramatically decreased lysosome size; also recorded: Dramatic size
same,CK,pediatric IOPD patient; AT2221 115 mg QW,1187 U/L
same,Pro-BNP,pediatric IOPD patient; AT2221 115 mg QW,44.29 pg/mL
same,CK,pediatric IOPD patient; ATB200 20 mg/kg QW,1834 U/L
same,Glc4,pediatric IOPD patient; ATB200 20 mg/kg QW,41.53 mmol/mol CRE
same,Pro-BNP,pediatric IOPD patient; ATB200 20 mg/kg QW,36.3 pg/mL
same,Pro-BNP,pediatric IOPD patient; ATB200 20 mg/kg q2w,151.5 pg/mL
same,Glc4,"pediatric IOPD patient; ATB200 20 mg/kg, AT2221 130 mg",29.08 mmol/mol CRE
same,Pro-BNP,"pediatric IOPD patient; ATB200 20 mg/kg, AT2221 130 mg",45.52 pg/mL
same,Pro-BNP,pediatric IOPD patient; ATB200 25 mg/kg QW,33.24 pg/mL
same,LVEF,pediatric IOPD patient; ATB200 25 mg/kg QW,60.3%
same,LVMI,pediatric IOPD patient; ATB200 25 mg/kg QW,43.6 g/m^2
same,CK,"pediatric IOPD patient; ATB200 30 mg/kg, AT2221 130 mg",1146 U/L
same,Pro-BNP,"pediatric IOPD patient; ATB200 30 mg/kg, AT2221 130 mg",29.25 pg/mL
same,LVEF,"pediatric IOPD patient; ATB200 30 mg/kg, AT2221 130 mg",57%
same,LVMI,"pediatric IOPD patient; ATB200 30 mg/kg, AT2221 130 mg",39.1 g/m^2
same,CK,pediatric IOPD patient; Change AT2221 to 115 mg QW,1277 U/L
same,CK,pediatric IOPD patient; Change ATB200 to 20 mg/kg QW,1674 U/L
same,Glc4,pediatric IOPD patient; Change ATB200 to 20 mg/kg QW,50.74 mmol/mol CRE
same,LVEF,pediatric IOPD patient; Change ATB200 to 20 mg/kg QW,61.1%
same,LVMI,pediatric IOPD patient; Change ATB200 to 20 mg/kg QW,38 g/m^2
same,CK,pediatric IOPD patient; Change ATB200 to 25 mg/kg QW,1524 U/L
same,Glc4,pediatric IOPD patient; Change ATB200 to 25 mg/kg QW,34.85 mmol/mol CRE
same,Pro-BNP,pediatric IOPD patient; Change ATB200 to 25 mg/kg QW,231.9 pg/mL
same,CK,pediatric IOPD patient; Change ATB200 to 30 mg/kg QW,1661 U/L
same,Glc4,pediatric IOPD patient; Change ATB200 to 30 mg/kg QW,36.19 mmol/mol CRE
same,Pro-BNP,pediatric IOPD patient; Change ATB200 to 30 mg/kg QW,180.6 pg/mL
same,CK,pediatric IOPD patient; change to ATB200 20 mg/kg q2w,1393-1444 U/L
same,Glc4,pediatric IOPD patient; change to ATB200 20 mg/kg q2w,32.58 mmol/mol CRE
same,LVEF,pediatric IOPD patient; change to ATB200 20 mg/kg q2w,41%
same,LVMI,pediatric IOPD patient; change to ATB200 20 mg/kg q2w,42 g/m^2
same,"skin rash, dyspnea, cough, pale-like complexion","pediatric IOPD patient; human, in vivo, 30 mg/kg","had not developed any skin rash, dyspnea, cough, or pale-like complexion"
same,GMFM 66 score,[2]; 16.5 months of ATB200 therapy,17.0 points
same,GMFM 66 score,[2]; 24 months of ATB200 therapy,24.0 points
same,GMFM 66 score,[2]; 28 months of ATB200 therapy,29.3 points
same,urinary Glc4 levels,[2]; biweekly 20 mg/kg,remained relatively constant
same,urinary Glc4 levels,[2]; dose increase to 25 mg/kg/bi-weekly and switch to weekly 30 mg/kg at 19 months of age,increase
same,urinary Glc4 levels,[2]; since 32 months of age (FIG. 71),decrease of the values to the initial level
same,pKd,CIMPR; M6P receptor plate binding assays,8.40 to 8.70
same,binding to CIMPR,CIMPR; compared with LUMIZYME (FIG. 10A),significantly better
same,no-observed-adverse effect-level (NOAEL),Juvenile toxicology,150 mg/kg
